Assay [1] addresses Beta Secretase enzyme (BACE) (Homo sapiens, UniProt P56817). The assay is described as follows: In vitro enzymatic BACE FRET (fluorescence resonance energy transfer) assay. It is filed as biochemical. The essentials: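 Run in 0.05 M acetate pH 4.2 with 10% DMSO final and 100 uM genapol; started by adding 50 nM FRET peptide substrate (fluorophore and quencher flanking the cleavage site), incubated one hour, then stopped with Tris to neutral pH before reading fluorescence.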

Assay [2] deals with Aβ40 in conditioned medium of cells stably expressing Amyloid Precursor Protein (APP). The assay is described as follows: In vitro BACE cell-based assay (Aβ40 in conditioned medium, sandwich ELISA). Conditions: Homo sapiens. Put shortly: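 Conditioned medium from stably APP-expressing cells treated with compound dose series is assayed for Aβ40 by sandwich ELISA with time-resolved fluorescence detection. IC50 is calculated from percent inhibition of Aβ40 against compound concentration.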
On the technique in general: An ELISA detects its analyte on a solid surface through an enzyme-linked reagent.

The mark [3] stands for this setting: average IC50, enzyme assay, read-out: BACE 1 FRET assay.
The mark [4] stands for this setting: HEK293, average IC50, HEK cells, read-out: HEK cell assay.
[5] abbreviates: HEK293, average IC50, read-out: HEK cell assay.

SMILES strings stand for the structures. Like-named read-outs stand apart in the source and are kept apart here.

Chain of Beta Secretase enzyme (BACE) (P56817 46-501, species assumed): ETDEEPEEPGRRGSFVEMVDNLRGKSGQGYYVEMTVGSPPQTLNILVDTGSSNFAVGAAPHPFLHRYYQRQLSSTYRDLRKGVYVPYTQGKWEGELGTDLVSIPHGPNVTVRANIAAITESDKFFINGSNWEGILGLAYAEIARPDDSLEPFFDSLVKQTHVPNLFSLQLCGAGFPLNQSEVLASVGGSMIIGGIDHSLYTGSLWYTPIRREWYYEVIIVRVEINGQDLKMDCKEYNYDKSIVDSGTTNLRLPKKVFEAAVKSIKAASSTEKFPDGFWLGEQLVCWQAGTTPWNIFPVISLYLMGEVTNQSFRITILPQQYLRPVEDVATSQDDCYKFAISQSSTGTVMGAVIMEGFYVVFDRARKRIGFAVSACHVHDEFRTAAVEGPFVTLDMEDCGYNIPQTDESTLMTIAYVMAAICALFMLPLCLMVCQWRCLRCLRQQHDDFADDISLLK

On to `NC1=N[C@@]2(CO1)c1cc(O)ccc1Oc1ncc(Br)cc12` [Example 689, (5S)-2′-amino-3-bromospiro[chromeno[2,3-b]pyridine-5,4′-[1,3]oxazol]-7-ol], for which the IC50 in assay [1] (setting [3]) is 4.07 µM; in assay [2] (setting [4]), 10 µM.
For the compound `CC#Cc1cncc(-c2ccc3c(c2)[C@@]2(COC(N)=N2)c2cc(C4=CCCOC4)nc(OC)c2O3)c1` [Example 836, (5S)-3-(5,6-dihydro-2H-pyran-3-yl)-1-methoxy-7-(5-(1-propyn-1-yl)-3-pyridinyl)spiro[chromeno[2,3-c]pyridine-5,4′-[1,3]oxazol]-2′-amine], the values for the IC50 in assay [1] (setting [3]) and in assay [2] (setting [5]) were 0.0005 µM and 0.004 µM, respectively.
On to `CC#Cc1cncc(-c2ccc3c(c2)[C@@]2(COC(N)=N2)c2cc(C4=CCOCC4)cc(F)c2O3)c1` [Example 946, (4S)-2′-(3,6-dihydro-2H-pyran-4-yl)-4′-fluoro-7′-(5-(1-propyn-1-yl)-3-pyridinyl)spiro[1,3-oxazole-4,9′-xanthen]-2-amine], for which the IC50 is 0.0003 µM in assay [1] (setting [3]) and 0.004 µM in assay [2] (setting [4]).
As for `CC(C)(C)COc1ccc2c(c1)[C@]1(COC(N)=N1)c1cc(-c3cncnc3)c(F)cc1O2` [Example 512, (4S)-7′-(2,2-dimethylpropoxy)-3′-fluoro-2′-(5-pyrimidinyl)spiro[1,3-oxazole-4,9′-xanthen]-2-amine], the IC50 in assay [1] (setting [3]) turned out to be 0.103 µM; in assay [2] (setting [4]), 0.378 µM.
Turning to `COc1ccncc1-c1ccc2c(c1)[C@@]1(COC(N)=N1)c1cc(C3=CCOCC3)ncc1O2` [Example 653, (5S)-3-(3,6-dihydro-2H-pyran-4-yl)-7-(4-methoxy-3-pyridinyl)spiro[chromeno[2,3-c]pyridine-5,4′-[1,3]oxazol]-2′-amine], the figures for the IC50 in assay [1] (setting [3]) and in assay [2] (setting [4]) were 0.0104 µM and 0.009 µM, respectively.
Consider `NC1=N[C@@]2(CO1)c1cc(C3=CCOCC3)cnc1Oc1ccc(-c3cccnc3F)c(F)c12` [Example 347, (5S)-3-(3,6-dihydro-2H-pyran-4-yl)-6-fluoro-7-(2-fluoro-3-pyridinyl)spiro[chromeno[2,3-b]pyridine-5,4′-[1,3]oxazol]-2′-amine], for which the results for the IC50 in assay [1] (setting [3]) and in assay [2] (setting [5]) were 0.356 µM and 0.457 µM, respectively.
`C[C@@H]1CN(c2cc(F)c3c(c2)[C@]2(COC(N)=N2)c2cc(-c4cnccn4)ccc2O3)C[C@H](C)O1` [Example 94, (S)-2′-((2R,6S)-2,6-dimethylmorpholino)-4′-fluoro-7′-(pyrazin-2-yl)-5H-spiro[oxazole-4,9′-xanthen]-2-amine]: the IC50 in assay [1] (setting [3]) was found to be 0.0063 µM; in assay [2] (setting [5]), 0.0197 µM.
For `CC1(C)CC(c2cnc3c(c2)[C@]2(COC(N)=N2)c2c(ccc(-c4cncnc4)c2F)O3)=CCO1` [Example 353, (5R)-3-(2,2-dimethyl-3,6-dihydro-2H-pyran-4-yl)-6-fluoro-7-(5-pyrimidinyl)spiro[chromeno[2,3-b]pyridine-5,4′-[1,3]oxazol]-2′-amine], the IC50 in assay [1] (setting [3]) amounted to 0.0012 µM; in assay [2] (setting [5]) it was 0.0158 µM.
For the compound `Cc1cc(-c2cc3c(cn2)Oc2ccc(-c4cccnc4F)cc2[C@@]32CSC(N)=N2)ccn1` [Example 934, (5S)-7-(2-fluoro-3-pyridinyl)-3-(2-methyl-4-pyridinyl)spiro[chromeno[2,3-c]pyridine-5,4′-[1,3]thiazol]-2′-amine], the IC50 is 0.001 µM in assay [1] (setting [3]) and 0.005 µM in assay [2] (setting [4]).
As to `NC1=N[C@@]2(CO1)c1cc(-c3cccnc3F)ccc1Oc1c2cc(N2CCOCC2)nc1F` [Example 892, (5S)-1-fluoro-7-(2-fluoro-3-pyridinyl)-3-(4-morpholinyl)spiro[chromeno[2,3-c]pyridine-5,4′-[1,3]oxazol]-2′-amine], the IC50 in assay [1] (setting [3]) worked out at 0.0003 µM; in assay [2] (setting [4]), 0.005 µM.
Take `CC1(C)C=C(c2cnc3c(c2)[C@]2(COC(N)=N2)c2c(ccc(-c4cncnc4)c2F)O3)CCO1` [Example 352, (5R)-3-(6,6-dimethyl-3,6-dihydro-2H-pyran-4-yl)-6-fluoro-7-(5-pyrimidinyl)spiro[chromeno[2,3-b]pyridine-5,4′-[1,3]oxazol]-2′-amine]: the IC50 in assay [1] (setting [3]) came out at 0.0028 µM; in assay [2] (setting [5]) it was 0.0194 µM.
`COc1ncc(-c2cc(F)c3c(c2)[C@]2(COC(N)=N2)c2cc(-c4cncc(F)c4)ccc2O3)cn1` [Example 293, (4S)-4′-fluoro-7′-(5-fluoro-3-pyridinyl)-2′-(2-methoxy-5-pyrimidinyl)spiro[1,3-oxazole-4,9′-xanthen]-2-amine]: the IC50 in assay [1] (setting [3]) is 0.0075 µM; in assay [2] (setting [5]) it was 0.0825 µM.
Taken in the same sequence, the figures for `N#Cc1cccc(-c2ccc3c(c2)[C@@]2(COC(N)=N2)c2cc(C4=CCOCC4)ncc2O3)c1` [Example 143, 3-((5S)-2′-amino-3-(3,6-dihydro-2H-pyran-4-yl)spiro[chromeno[2,3-c]pyridine-5,4′-[1,3]oxazol]-7-yl)benzonitrile] were 0.0011 µM and 0.0094 µM.
Consider `CC1(C)C=C(c2cnc3c(c2)[C@]2(CSC(N)=N2)c2cc(-c4cncnc4)ccc2O3)CCO1` [Example 670, (5S)-3-(6,6-dimethyl-3,6-dihydro-2H-pyran-4-yl)-7-(5-pyrimidinyl)spiro[chromeno[2,3-b]pyridine-5,4′-[1,3]thiazol]-2′-amine], for which the IC50 in assay [1] (setting [3]) stood at 0.0009 µM; in assay [2] (setting [4]), 0.009 µM.
Consider `COc1cccc(Nc2ccc3c(c2)[C@@]2(COC(N)=N2)c2cc(C4=CCOCC4)cc(F)c2O3)c1` [Example 197, (4S)-7′-(3,6-dihydro-2H-pyran-4-yl)-5′-fluoro-N~2~′-(3-methoxyphenyl)spiro[1,3-oxazole-4,9′-xanthene]-2,2′-diamine], for which the IC50 in assay [1] (setting [3]) stood at 0.0368 µM; in assay [2] (setting [5]) it was 0.679 µM.
Regarding `CC#Cc1cncc(-c2ccc3c(c2)[C@@]2(COC(N)=N2)c2cc(OC)cc(F)c2O3)n1` [Example 723, (4S)-4′-fluoro-2′-methoxy-7′-(6-(1-propyn-1-yl)-2-pyrazinyl)spiro[1,3-oxazole-4,9′-xanthen]-2-amine], the IC50 worked out at 0.0926 µM in assay [1] (setting [3]) and 0.958 µM in assay [2] (setting [5]).
Turning to `NC1=N[C@@]2(CO1)c1cc(-c3ccc(N4CCC(F)(F)C4)nc3)ccc1Oc1cnc(N3CCC(F)(F)C3)cc12` [Example 423, (5S)-3-(3,3-difluoro-1-pyrrolidinyl)-7-(6-(3,3-difluoro-1-pyrrolidinyl)-3-pyridinyl)spiro[chromeno[2,3-c]pyridine-5,4′-[1,3]oxazol]-2′-amine], the IC50 in assay [1] (setting [3]) came out at 0.458 µM; in assay [2] (setting [4]), 0.402 µM.
In the case of `NC1=N[C@@]2(CO1)c1cc(-c3cccnc3)ncc1Oc1c(F)cc(C3=CCOCC3)cc12` [Example 307, (5S)-7-(3,6-dihydro-2H-pyran-4-yl)-9-fluoro-3-(3-pyridinyl)spiro[chromeno[2,3-c]pyridine-5,4′-[1,3]oxazol]-2′-amine], the IC50 in assay [1] (setting [3]) worked out at 0.0039 µM; in assay [2] (setting [5]) it was 0.0581 µM.
In the case of `COc1cc(F)c2c(c1)[C@]1(CSC(N)=N1)c1cc(Br)ccc1O2` [Example 606, (4S)-7′-bromo-4′-fluoro-2′-methoxyspiro[1,3-thiazole-4,9′-xanthen]-2-amine], the IC50 in assay [1] (setting [3]) was 0.813 µM; in assay [2] (setting [4]), 0.279 µM.
In the case of `CC1(C#Cc2cc(F)c3c(c2)C2(COC(N)=N2)c2cc(-c4cncc(F)c4)ncc2O3)COC1` (stereo not shown) [Example 661, 9-fluoro-3-(5-fluoro-3-pyridinyl)-7-((3-methyl-3-oxetanyl)ethynyl)spiro[chromeno[2,3-c]pyridine-5,4′-[1,3]oxazol]-2′-amine], the IC50 in assay [1] (setting [3]) is 0.018 µM; in assay [2] (setting [4]), 0.852 µM.
In the case of `NC1=NC2(CO1)c1cc(-c3cccnc3F)ccc1Oc1c2cc(C#Cc2cccnc2)nc1F` (stereo not shown) [Example 735, 1-fluoro-7-(2-fluoro-3-pyridinyl)-3-(3-pyridinylethynyl)spiro[chromeno[2,3-c]pyridine-5,4′-[1,3]oxazol]-2′-amine], the results for the IC50 in assay [1] (setting [3]) and in assay [2] (setting [5]) were 0.0009 µM and 0.131 µM, respectively.
The matching figures for `NC1=N[C@@]2(CS1)c1cc(-c3cccnc3F)ccc1Oc1c2cc(-c2cccnc2F)nc1F` [Example 1025, (5S)-1-fluoro-3,7-bis(2-fluoro-3-pyridinyl)spiro[chromeno[2,3-c]pyridine-5,4′-[1,3]thiazol]-2′-amine]: 0.001 µM and 0.141 µM.
For the compound `CN(c1cc(F)c2c(c1)[C@]1(COC(N)=N1)c1cc(-c3cccnc3F)ccc1O2)C1COC1` [Example 854, (4S)-4′-fluoro-7′-(2-fluoro-3-pyridinyl)-N~2~′-methyl-N~2~′-3-oxetanylspiro[1,3-oxazole-4,9′-xanthene]-2,2′-diamine], the IC50 came to 0.0044 µM in assay [1] (setting [3]) and 0.017 µM in assay [2] (setting [4]).
Turning to `Cc1nn(C)cc1-c1cccc(-c2ccc3c(c2)[C@@]2(COC(N)=N2)c2cc(C4=CCOCC4)ncc2O3)c1` [Example 255, (5S)-3-(3,6-dihydro-2H-pyran-4-yl)-7-(3-(1,3-dimethyl-1H-pyrazol-4-yl)phenyl)spiro[chromeno[2,3-c]pyridine-5,4′-[1,3]oxazol]-2′-amine], the IC50 in assay [1] (setting [3]) amounted to 0.0223 µM; in assay [2] (setting [5]), 0.565 µM.
With `CC1(C#Cc2cc3c(cn2)Oc2ccc(-c4cncc(F)c4)cc2[C@@]32COC(N)=N2)COC1` [Example 153, (5S)-7-(5-fluoro-3-pyridinyl)-3-((3-methyl-3-oxetanyl)ethynyl)spiro[chromeno[2,3-c]pyridine-5,4′-[1,3]oxazol]-2′-amine], the results for the IC50 in assay [1] (setting [3]) and in assay [2] (setting [5]) were 0.0092 µM and 0.0462 µM, respectively.
`CC(C)(C)/C=C/c1ccc2c(c1)[C@]1(COC(N)=N1)c1cc(-c3cncnc3)c(F)cc1O2` [Example 496, (4R)-7′-((1E)-3,3-dimethyl-1-buten-1-yl)-3′-fluoro-2′-(5-pyrimidinyl)spiro[1,3-oxazole-4,9′-xanthen]-2-amine]: the IC50 in assay [1] (BACE 1 FRET assay (uM)) is 0.0014 µM; in assay [2] (HEK293, read-out: HEK cell assay (uM), average IC50, HEK cells), 0.0311 µM.

For the origin of these results see patent publication US8883782B2, “Spiro-tetracyclic ring compounds as beta-secretase modulators and methods of use” (Amgen Inc., priority 2010, dated 2014).
